Legend:
Experiment in all cases: concentration in plasma after dosing
Rat [1] = conditions: 2 h; dosed: Oxymetholone; 30 mg/kg; oral; Female; F344/N
Rat [2] = conditions: 40 min; dosed: Oxymetholone; 120 mg/kg; oral; Male; F344/N
Rat [3] = conditions: 4 h; dosed: Oxymetholone; 30 mg/kg; oral; Male; F344/N
Rat [4] = conditions: 2 h; dosed: Oxymetholone; 120 mg/kg; oral; Female; F344/N
Rat [5] = conditions: 2 h; dosed: Oxymetholone; 120 mg/kg; oral; Male; F344/N
Rat [6] = conditions: 10 min; dosed: Oxymetholone; 120 mg/kg; oral; Male; F344/N
Rat [7] = conditions: 2 h; dosed: Oxymetholone; 120 mg/kg; oral; Female; F344/N; remark: listed apart in the source
Rat [8] = conditions: 40 min; dosed: Oxymetholone; 30 mg/kg; oral; Male; F344/N
Rat [9] = conditions: 12 h; dosed: Oxymetholone; 120 mg/kg; oral; Male; F344/N
Rat [10] = conditions: 2 h; dosed: Oxymetholone; 20 mg/kg; iv; Male; F344/N
Rat [11] = conditions: 10 min; dosed: Oxymetholone; 20 mg/kg; iv; Male; F344/N
Rat [12] = conditions: 20 min; dosed: Oxymetholone; 20 mg/kg; iv; Male; F344/N
Rat [13] = conditions: 3 h; dosed: Oxymetholone; 120 mg/kg; oral; Male; F344/N
Rat [14] = conditions: 6 h; dosed: Oxymetholone; 120 mg/kg; oral; Male; F344/N
Rat [15] = conditions: 1 h; dosed: Oxymetholone; 120 mg/kg; oral; Male; F344/N
Rat [16] = conditions: 2 h; dosed: Oxymetholone; 30 mg/kg; oral; Male; F344/N
Rat [17] = conditions: 5 h; dosed: Oxymetholone; 120 mg/kg; oral; Male; F344/N
Rat [18] = conditions: 8 h; dosed: Oxymetholone; 120 mg/kg; oral; Male; F344/N
Rat [19] = conditions: 5 min; dosed: Oxymetholone; 20 mg/kg; iv; Male; F344/N
Rat [20] = conditions: 4 h; dosed: Oxymetholone; 30 mg/kg; oral; Male; F344/N; remark: listed apart in the source
Rat [21] = conditions: 2 h; dosed: Oxymetholone; 30 mg/kg; oral; Female; F344/N; remark: listed apart in the source
Rat [22] = conditions: 2 h; dosed: Oxymetholone; 20 mg/kg; iv; Male; F344/N; remark: listed apart in the source
Rat [23] = conditions: 0.5 h; dosed: Oxymetholone; 20 mg/kg; iv; Male; F344/N
Rat [24] = conditions: 3 h; dosed: Oxymetholone; 120 mg/kg; oral; Male; F344/N; remark: listed apart in the source
Rat [25] = conditions: 20 min; dosed: Oxymetholone; 20 mg/kg; iv; Male; F344/N; remark: listed apart in the source
Rat [26] = conditions: 40 min; dosed: Oxymetholone; 30 mg/kg; oral; Male; F344/N; remark: listed apart in the source
Rat [27] = conditions: 4 h; dosed: Oxymetholone; 20 mg/kg; iv; Male; F344/N
Rat [28] = conditions: 0.5 h; dosed: Oxymetholone; 20 mg/kg; iv; Male; F344/N; remark: listed apart in the source
Rat [29] = conditions: F344/N
Rat [30] = conditions: 2 h; dosed: Oxymetholone; 30 mg/kg; oral; Male; F344/N; remark: listed apart in the source
Rat [31] = conditions: 1 h; dosed: Oxymetholone; 20 mg/kg; iv; Male; F344/N
Rat [32] = conditions: 1 h; dosed: Oxymetholone; 120 mg/kg; oral; Male; F344/N; remark: listed apart in the source
Rat [33] = conditions: 2 h; dosed: Oxymetholone; 120 mg/kg; oral; Male; F344/N; remark: listed apart in the source
Rat [34] = conditions: 10 min; dosed: Oxymetholone; 20 mg/kg; iv; Male; F344/N; remark: listed apart in the source
Rat [35] = conditions: 4 h; dosed: Oxymetholone; 120 mg/kg; oral; Male; F344/N
Rat [36] = conditions: 10 min; dosed: Oxymetholone; 120 mg/kg; oral; Male; F344/N; remark: listed apart in the source
Rat [37] = conditions: 8 h; dosed: Oxymetholone; 120 mg/kg; oral; Male; F344/N; remark: listed apart in the source
Rat [38] = conditions: 5 min; dosed: Oxymetholone; 20 mg/kg; iv; Male; F344/N; remark: listed apart in the source
Rat [39] = conditions: 40 min; dosed: Oxymetholone; 120 mg/kg; oral; Male; F344/N; remark: listed apart in the source
Rat [40] = conditions: 1 h; dosed: Oxymetholone; 20 mg/kg; iv; Male; F344/N; remark: listed apart in the source
Rat [41] = conditions: 9 h; dosed: Emodin; 80 mg/kg; oral; Female; F344/N
Rat [42] = conditions: 9 h; dosed: Emodin; 80 mg/kg; oral; Female; F344/N; remark: listed apart in the source
Rat [43] = conditions: 10 min; dosed: Emodin; 5 mg/kg; iv; Female; F344/N
Rat [44] = conditions: 6 h; dosed: Emodin; 80 mg/kg; oral; Female; F344/N
Rat [45] = conditions: dosed: Emodin, 80 mg/kg, oral, Female, F344/N
Rat [46] = conditions: 40 min; dosed: Emodin; 5 mg/kg; iv; Female; F344/N
Rat [47] = conditions: 40 min; dosed: Emodin; 5 mg/kg; iv; Male; F344/N
Rat [48] = conditions: 40 min; dosed: Emodin; 5 mg/kg; iv; Male; F344/N; remark: listed apart in the source
Rat [49] = conditions: 9 h; dosed: Emodin; 80 mg/kg; oral; Male; F344/N
Rat [50] = conditions: dosed: Emodin, 5 mg/kg, iv, Female, F344/N
Rat [51] = conditions: dosed: Emodin, 5 mg/kg, iv, Female, F344/N; remark: listed apart in the source
Rat [52] = conditions: dosed: Emodin, 5 mg/kg, iv, Female, F344/N; remark: listed apart in the source
Rat [53] = conditions: dosed: Emodin, 80 mg/kg, oral, Female, F344/N; remark: listed apart in the source
Rat [54] = conditions: 20 min; dosed: Emodin; 5 mg/kg; iv; Male; F344/N
Rat [55] = conditions: 12 h; dosed: Emodin; 80 mg/kg; oral; Male; F344/N
Rat [56] = conditions: 5 min; dosed: Emodin; 5 mg/kg; iv; Male; F344/N
Rat [57] = conditions: 10 min; dosed: Emodin; 5 mg/kg; iv; Female; F344/N; remark: listed apart in the source
Rat [58] = conditions: dosed: Emodin, 5 mg/kg, iv, Male, F344/N
Rat [59] = conditions: 6 h; dosed: Emodin; 80 mg/kg; oral; Male; F344/N
Rat [60] = conditions: 5 min; dosed: Emodin; 5 mg/kg; iv; Male; F344/N; remark: listed apart in the source
Rat [61] = conditions: dosed: Emodin, 5 mg/kg, iv, Female, F344/N; remark: listed apart in the source
Rat [62] = conditions: 20 min; dosed: Emodin; 5 mg/kg; iv; Female; F344/N
Rat [63] = conditions: 10 min; dosed: Emodin; 5 mg/kg; iv; Male; F344/N
Rat [64] = conditions: 10 min; dosed: Emodin; 5 mg/kg; iv; Male; F344/N; remark: listed apart in the source
Rat [65] = conditions: 9 h; dosed: Emodin; 80 mg/kg; oral; Male; F344/N; remark: listed apart in the source
Rat [66] = conditions: 6 h; dosed: Emodin; 80 mg/kg; oral; Female; F344/N; remark: listed apart in the source
Rat [67] = conditions: 20 min; dosed: Emodin; 5 mg/kg; iv; Male; F344/N; remark: listed apart in the source
Rat [68] = conditions: 20 min; dosed: Emodin; 5 mg/kg; iv; Female; F344/N; remark: listed apart in the source
Rat [69] = conditions: 40 min; dosed: Emodin; 5 mg/kg; iv; Female; F344/N; remark: listed apart in the source
Rat [70] = conditions: dosed: Emodin, 5 mg/kg, iv, Male, F344/N; remark: listed apart in the source

C[C@]12C/C(=C/O)C(=O)C[C@@H]1CC[C@@H]1[C@@H]2CC[C@@]2(C)[C@H]1CC[C@]2(C)O [Oxymetholone]
Conditions | concentration in plasma [ng/mL]
Rat [1] | 231
Rat [2] | 733
Rat [3] | 316
Rat [4] | 918
Rat [5] | 1610
Rat [6] | 666
Rat [7] | 1020
Rat [8] | 641
Rat [9] | 255
Rat [10] | 914
Rat [11] | 6510
Rat [12] | 3010
Rat [13] | 1080
Rat [14] | 462
Rat [15] | 739
Rat [16] | 875
Rat [17] | 600
Rat [18] | 339
Rat [19] | 14400
Rat [20] | 466
Rat [21] | 276
Rat [22] | 846
Rat [23] | 1720
Rat [24] | 1070
Rat [25] | 2210
Rat [26] | 629
Rat [27] | 376
Rat [28] | 2190
Rat [30] | 711
Rat [31] | 881
Rat [32] | 952
Rat [33] | 1330
Rat [34] | 8040
Rat [35] | 910
Rat [36] | 319
Rat [37] | 203
Rat [38] | 20300
Rat [39] | 675
Rat [40] | 1490

concentration in plasma [ng/mL], Rat [29], dosed: Oxymetholone
Conditions | Female | Male
0.5 h, 20 mg/kg, iv | – | 2070
1 h, 20 mg/kg, iv | – | 1210
1 h, 120 mg/kg, oral | – | 999
1.5 h, 120 mg/kg, oral | – | 616
2 h, 20 mg/kg, iv | – | 619
2 h, 30 mg/kg, oral | 266 | 875
2 h, 120 mg/kg, oral | 687 | 1130
3 h, 120 mg/kg, oral | – | 925
4 h, 20 mg/kg, iv | – | 496
4 h, 30 mg/kg, oral | – | 427
4 h, 120 mg/kg, oral | – | 977
5 h, 120 mg/kg, oral | – | 527
5 min, 20 mg/kg, iv | – | 20600
6 h, 120 mg/kg, oral | – | 806
8 h, 120 mg/kg, oral | – | 428
10 min, 20 mg/kg, iv | – | 5510
10 min, 120 mg/kg, oral | – | 626
12 h, 120 mg/kg, oral | – | 208
20 min, 20 mg/kg, iv | – | 4270
20 min, 120 mg/kg, oral | – | 788
40 min, 30 mg/kg, oral | – | 564
40 min, 120 mg/kg, oral | – | 684

Cc1cc(O)c2c(c1)C(=O)c1cc(O)cc(O)c1C2=O [Emodin]
Conditions | concentration in plasma [ng/mL]
Rat [41] | 232
Rat [42] | 198
Rat [43] | 3010
Rat [44] | 165
Rat [46] | 928
Rat [47] | 2200
Rat [48] | 1700
Rat [49] | 155
Rat [54] | 4360
Rat [55] | 110
Rat [56] | 8480
Rat [57] | 2260
Rat [59] | 108
Rat [60] | 8390
Rat [62] | 794
Rat [63] | 7370
Rat [64] | 6180
Rat [65] | 153
Rat [66] | 151
Rat [67] | 5930
Rat [68] | 1190
Rat [69] | 963

Conditions | concentration in plasma [ng/mL]
Rat [45], 3 h | 255
Rat [45], 12 h | 184
Rat [50], 1 h | 158
Rat [50], 2 min | 6490
Rat [51], 1.5 h | 128
Rat [51], 5 min | 4780
Rat [52], 1.5 h | 151
Rat [52], 5 min | 5160
Rat [53], 3 h | 136
Rat [53], 12 h | 175
Rat [58], 1 h | 229
Rat [58], 2 min | 10500
Rat [61], 1 h | 163
Rat [61], 2 min | 5990
Rat [70], 1 h | 219
Rat [70], 2 min | 8580

concentration in plasma [ng/mL], Rat [29], dosed: Emodin
Conditions | Female | Male
1 h, 5 mg/kg, iv | 256 | 205
1.5 h, 5 mg/kg, iv | 119 | –
1.5 h, 80 mg/kg, oral | 136 | –
2 min, 5 mg/kg, iv | 4970 | 8380
3 h, 80 mg/kg, oral | 115 | –
5 min, 5 mg/kg, iv | 3040 | 7820
6 h, 40 mg/kg, oral | 114 | –
6 h, 80 mg/kg, oral | 143 | 159
8 h, 40 mg/kg, oral | 111 | –
9 h, 80 mg/kg, oral | 269 | 126
10 min, 5 mg/kg, iv | 1650 | 4660
12 h, 80 mg/kg, oral | 167 | 116
20 min, 5 mg/kg, iv | 2400 | 4970
40 min, 5 mg/kg, iv | 740 | 1980
